Data published in patent publication US8450332B2, “LIMK2 inhibitors, compositions comprising them, and methods of their use” (Lexicon Pharmaceuticals, Inc., priority 2008, dated 2013).
pIC50: −log10 of the molar value.

Target: T1, LIMK2 (Homo sapiens, UniProt P53671)
T1 construct: His tag (histidine-tagged; pFastBacHT vector); made in house; host or cells: Sf9 insect cells (BAC-to-BAC baculovirus system)
Assay: In vitro LIMK2 inhibition assay (33P incorporation into myelin basic protein flash plates)
Format: biochemical
Description: Using the procedures described herein and methods known in the art, the additional compounds listed below in Table 1 were prepared. The LIMK2 IC50 data that is provided below for some of the compounds was determined using the assay described in Example 32.
An in vitro assay used to identify LIMK2 inhibitors was developed. The analytical readout was the incorporation of ^33P from ATP substrate into immobilized myelin basic protein coated flash plates (Perkin Elmer Biosciences), which were counted on a scintillation counter equipped with a plate reader (TopCount, Packard Bioscience, Meriden, Conn.). Using 384 well flat MBP flashplates, total assay volume was 50 μl. The HTS program utilized a Biomek FX for dilution.
For each assay, the ingredients and conditions were as follows: 200 ng of enzyme was incubated in assay buffer (1× assay buffer contains 30 mM HEPES (pH 8.0), 5 mM DTT, and 10 mM MgCl2), 10 μM ATP, 0.2 μCi [gamma-^33P]-ATP and 10 μM of potential inhibitory compound. The reaction was incubated at room temperature for 60 minutes, washed 3 times with 75 μl of stop/wash buffer (1× stop/was buffer contains 50 mM EDTA and 20 mM Tris (pH 7.4)), and then the plates were read on the scintillation counter. Different concentrations of staurosporine (400 nM, 200 nM, 100 nM and 50 nM; purchased from BIOMOL (Plymouth Meeting, Pa.)) were used as controls on each plate.

T1 sequence (P53671 whole entry): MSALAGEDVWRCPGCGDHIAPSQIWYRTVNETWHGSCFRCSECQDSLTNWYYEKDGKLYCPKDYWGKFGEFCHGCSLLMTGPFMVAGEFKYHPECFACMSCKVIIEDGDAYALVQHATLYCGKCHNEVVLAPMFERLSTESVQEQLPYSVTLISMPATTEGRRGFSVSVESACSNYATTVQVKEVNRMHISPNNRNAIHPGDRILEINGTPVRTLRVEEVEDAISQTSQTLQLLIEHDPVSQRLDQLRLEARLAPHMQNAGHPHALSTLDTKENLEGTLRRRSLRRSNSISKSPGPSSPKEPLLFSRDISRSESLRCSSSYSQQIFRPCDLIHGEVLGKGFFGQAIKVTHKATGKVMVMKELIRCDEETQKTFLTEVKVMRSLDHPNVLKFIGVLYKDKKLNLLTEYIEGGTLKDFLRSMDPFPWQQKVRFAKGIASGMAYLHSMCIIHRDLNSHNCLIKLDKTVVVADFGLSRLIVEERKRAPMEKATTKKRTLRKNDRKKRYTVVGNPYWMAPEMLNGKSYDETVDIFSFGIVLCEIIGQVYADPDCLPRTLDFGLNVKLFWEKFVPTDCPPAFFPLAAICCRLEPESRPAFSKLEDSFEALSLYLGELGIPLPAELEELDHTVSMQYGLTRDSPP

Question: How did the pIC50 turn out when Cc1c[nH]c2ncnc(N3CCC(CNC(=O)c4cnn(C)c4)(C(=O)Nc4cccc(OC(=O)N(C)C)c4)CC3)c12 [3-(4-((1-methyl-1H-pyrazole-4-carboxamido)methyl)-1-(5-methyl-7H-pyrrolo[2,3-d]pyrimidin-4-yl)piperidine-4-carboxamido)phenyl dimethylcarbamate] was run?
Answer: > 6.60

Question: Cc1c[nH]c2ncnc(N3CCC(CNC(=O)C4(NC(=O)OC(C)(C)C)CC4)(C(=O)Nc4cccc(OC(=O)N(C)C)c4)CC3)c12 [3-(4-((1-tert-butoxycarbonylaminocyclopropanecarboxamido)methyl)-1-(5-methyl-7H-pyrrolo[2,3-d]pyrimidin-4-yl)piperidine-4-carboxamido)phenyl dimethylcarbamate] was tested. Which pIC50 did it give?
Answer: > 6.60

Question: Cc1c[nH]c2ncnc(N3CCC(Cc4ncc[nH]4)(C(=O)Nc4cccc(OC(=O)N(C)C)c4)CC3)c12 [3-(4-((1H-imidazol-2-yl)methyl)-1-(5-methyl-7H-pyrrolo[2,3-d]pyrimidin-4-yl)piperidine-4-carboxamido)phenyl dimethylcarbamate] was tested. Which pIC50 did it give?
Answer: > 6.60

Question: Cc1c[nH]c2ncnc(N3CCC(Cc4nnn[nH]4)(C(=O)Nc4cccc(OC(=O)N(C)C)c4)CC3)c12 [3-(4-((1H-tetrazol-5-yl)methyl)-1-(5-methyl-7H-pyrrolo[2,3-d]pyrimidin-4-yl)piperidine-4-carboxamido)phenyl dimethylcarbamate] was tested. Which pIC50 did it give?
Answer: > 6.60

Question: With Cc1c[nH]c2ncnc(N3CCC(CNC(=O)CC4NC(=O)NC4=O)(C(=O)Nc4cccc(OC(=O)N(C)C)c4)CC3)c12 (centres unmarked) [3-(4-((2-(2,5-dioxoimidazolidin-4-yl)acetamido)methyl)-1-(5-methyl-7H-pyrrolo[2,3-d]pyrimidin-4-yl)piperidine-4-carboxamido)phenyl dimethylcarbamate] as the compound, how does the pIC50 read?
Answer: > 6.60

Question: With COCCOCC(=O)NCC1(C(=O)Nc2cccc(OC(=O)N(C)C)c2)CCN(c2ncnc3[nH]cc(C)c23)CC1 [3-(4-((2-(2-methoxyethoxy)acetamido)methyl)-1-(5-methyl-7H-pyrrolo[2,3-d]pyrimidin-4-yl)piperidine-4-carboxamido)phenyl dimethylcarbamate] as the compound, how does the pIC50 read?
Answer: > 6.60

Question: Cc1c[nH]c2ncnc(N3CCC(CNC(=O)CN(C)C)(C(=O)Nc4cccc(OC(=O)N(C)C)c4)CC3)c12 [3-(4-((2-(dimethylamino)acetamido)methyl)-1-(5-methyl-7H-pyrrolo[2,3-d]pyrimidin-4-yl)piperidine-4-carboxamido)phenyl dimethylcarbamate] was tested. Which pIC50 did it give?
Answer: > 6.60

Question: With Cc1c[nH]c2ncnc(N3CCC(CNC(=O)CN)(C(=O)Nc4cccc(OC(=O)N(C)C)c4)CC3)c12 [3-(4-((2-aminoacetamido)methyl)-1-(5-methyl-7H-pyrrolo[2,3-d]pyrimidin-4-yl)piperidine-4-carboxamido)phenyl dimethylcarbamate] as the compound, how does the pIC50 read?
Answer: > 6.60

Question: With COCC(=O)NCC1(C(=O)Nc2cccc(OC(=O)N(C)C)c2)CCN(c2ncnc3[nH]cc(C)c23)CC1 [3-(4-((2-methoxyacetamido)methyl)-1-(5-methyl-7H-pyrrolo[2,3-d]pyrimidin-4-yl)piperidine-4-carboxamido)phenyl dimethylcarbamate] as the compound, how does the pIC50 read?
Answer: > 6.60

Question: With Cc1c[nH]c2ncnc(N3CCC(CNC(=O)C(C)(CO)CO)(C(=O)Nc4cccc(OC(=O)N(C)C)c4)CC3)c12 [3-(4-((3-hydroxy-2-(hydroxymethyl)-2-methylpropanamido)methyl)-1-(5-methyl-7H-pyrrolo[2,3-d]pyrimidin-4-yl)piperidine-4-carboxamido)phenyl dimethylcarbamate] as the compound, how does the pIC50 read?
Answer: > 6.60

Question: With COCCC(=O)NCC1(C(=O)Nc2cccc(OC(=O)N(C)C)c2)CCN(c2ncnc3[nH]cc(C)c23)CC1 [3-(4-((3-methoxypropanamido)methyl)-1-(5-methyl-7H-pyrrolo[2,3-d]pyrimidin-4-yl)piperidine-4-carboxamido)phenyl dimethylcarbamate] as the compound, how does the pIC50 read?
Answer: > 6.60

Question: How did the pIC50 turn out when Cc1cc(C(=O)NCC2(C(=O)Nc3cccc(OC(=O)N(C)C)c3)CCN(c3ncnc4[nH]cc(C)c34)CC2)n[nH]1 [3-(4-((5-methyl-1H-pyrazole-3-carboxamido)methyl)-1-(5-methyl-7H-pyrrolo[2,3-d]pyrimidin-4-yl)piperidine-4-carboxamido)phenyl dimethylcarbamate] was run?
Answer: > 6.60

Question: With Cc1c[nH]c2ncnc(N3CCC(CNS(=O)(=O)N(C)C)(C(=O)Nc4cccc(OC(=O)N(C)C)c4)CC3)c12 [3-(4-((N,N-dimethylsulfamoylamino)methyl)-1-(5-methyl-7H-pyrrolo[2,3-d]pyrimidin-4-yl)piperidine-4-carboxamido)phenyl dimethylcarbamate] as the compound, how does the pIC50 read?
Answer: > 6.60

Question: How did the pIC50 turn out when Cc1c[nH]c2ncnc(N3CCC(Cc4nnnn4Cc4ccccc4)(C(=O)Nc4cccc(OC(=O)N(C)C)c4)CC3)c12 [3-(4-((l-benzyl-1H-tetrazol-5-yl)methyl)-1-(5-methyl-7H-pyrrolo[2,3-d]pyrimidin-4-yl)piperidine-4-carboxamido)phenyl dimethylcarbamate] was run?
Answer: > 6.60

Question: COC(=O)NCC1(C(=O)Nc2cccc(OC(=O)N(C)C)c2)CCN(c2ncnc3[nH]cc(C)c23)CC1 [3-(4-((methoxycarbonylaminomethyl)-1-(5-methyl-7H-pyrrolo[2,3-d]pyrimidin-4-yl)piperidine-4-carboxamido)phenyl dimethylcarbamate] was tested. Which pIC50 did it give?
Answer: > 6.60

Question: CC(=O)NCC1(C(=O)Nc2cccc(OC(=O)N(C)C)c2)CCN(c2ncnc3[nH]cc(C)c23)CC1 [3-(4-(acetamidomethyl)-1-(5-methyl-7H-pyrrolo[2,3-d]pyrimidin-4-yl)piperidine-4-carboxamido)phenyl dimethylcarbamate] was tested. Which pIC50 did it give?
Answer: > 6.60

Question: With CCN(CC)C(=O)Oc1cccc(NC(=O)C2(CN)CCN(c3ncnc4[nH]cc(C)c34)CC2)c1 [3-(4-(aminomethyl)-1-(5-methyl-7H-pyrrolo[2,3-d]pyrimidin-4-yl)piperidine-4-carboxamido)phenyl diethylcarbamate] as the compound, how does the pIC50 read?
Answer: > 6.60

Question: How did the pIC50 turn out when Cc1c[nH]c2ncnc(N3CCC(CN)(C(=O)Nc4cccc(OC(=O)N5CCCC5)c4)CC3)c12 [3-(4-(aminomethyl)-1-(5-methyl-7H-pyrrolo[2,3-d]pyrimidin-4-yl)piperidine-4-carboxamido)phenyl pyrrolidine-1-carboxylate] was run?
Answer: > 6.60

Question: Cc1c[nH]c2ncnc(N3CCC(CN=[N+]=[N-])(C(=O)Nc4cccc(OC(=O)N(C)C)c4)CC3)c12 [3-(4-(azidomethyl)-1-(5-methyl-7H-pyrrolo[2,3-d]pyrimidin-4-yl)piperidine-4-carboxamido)phenyl dimethylcarbamate] was tested. Which pIC50 did it give?
Answer: > 6.60

Question: C=CCC1(C(=O)Nc2cccc(OC(=O)N(C)C)c2)CCN(c2ncnc3[nH]cc(C)c23)CC1 [3-(4-allyl-1-(5-methyl-7H-pyrrolo[2,3-d]pyrimidin-4-yl)piperidine-4-carboxamido)phenyl dimethylcarbamate] was tested. Which pIC50 did it give?
Answer: > 6.60

Question: How did the pIC50 turn out when Cc1c[nH]c2ncnc(N3CCC(C#N)(C(=O)Nc4cccc(OC(=O)N(C)C)c4)CC3)c12 [3-(4-cyano-1-(5-methyl-7H-pyrrolo[2,3-d]pyrimidin-4-yl)piperidine-4-carboxamido)phenyl dimethylcarbamate] was run?
Answer: > 6.60

Question: With Cc1c[nH]c2ncnc(N3CCC(C(=O)Nc4cccc(OC(=O)N(C)C)c4)(C(C)C)CC3)c12 [3-(4-isopropyl-1-(5-methyl-7H-pyrrolo[2,3-d]pyrimidin-4-yl)piperidine-4-carboxamido)phenyl dimethylcarbamate] as the compound, how does the pIC50 read?
Answer: > 6.60

Question: With Cc1c[nH]c2ncnc(N3CCC(C)(C(=O)Nc4cccc(OC(=O)N5CCOCC5)c4)CC3)c12 [3-(4-methyl-1-(5-methyl-7H-pyrrolo[2,3-d]pyrimidin-4-yl)piperidine-4-carboxamido)phenyl morpholine-4-carboxylate] as the compound, how does the pIC50 read?
Answer: > 6.60

Question: CNc1nc2ccc(NC(=O)C3(CN)CCN(c4ncnc5[nH]cc(C)c45)CC3)cc2o1 [4-(aminomethyl)-1-(5-methyl-7H-pyrrolo[2,3-d]pyrimidin-4-yl)-N-(2-(methylamino)benzo[d]oxazol-6-yl)piperidine-4-carboxamide] was tested. Which pIC50 did it give?
Answer: > 6.30

Question: How did the pIC50 turn out when Cc1c[nH]c2ncnc(N3CCC(CN)(C(=O)Nc4cccc(-c5cnco5)c4)CC3)c12 [4-(aminomethyl)-1-(5-methyl-7H-pyrrolo[2,3-d]pyrimidin-4-yl)-N-(3-(oxazol-5-yl)phenyl)piperidine-4-carboxamide] was run?
Answer: > 6.60

Question: How did the pIC50 turn out when Cc1c[nH]c2ncnc(N3CCC(CN)(C(=O)Nc4cccc(C(F)(F)F)c4)CC3)c12 [4-(aminomethyl)-1-(5-methyl-7H-pyrrolo[2,3-d]pyrimidin-4-yl)-N-(3-(trifluoromethyl)phenyl)piperidine-4-carboxamide] was run?
Answer: > 6.60

Question: With Cc1cccc(NC(=O)C2(CN)CCN(c3ncnc4[nH]cc(C)c34)CC2)c1 [4-(aminomethyl)-1-(5-methyl-7H-pyrrolo[2,3-d]pyrimidin-4-yl)-N-m-tolylpiperidine-4-carboxamide] as the compound, how does the pIC50 read?
Answer: > 6.60

Question: With Cc1c[nH]c2ncnc(N3CCC(CN)(C(=O)Nc4ccc5nc(N(C)C)oc5c4)CC3)c12 [4-(aminomethyl)-N-(2-(dimethylamino)benzo[d]oxazol-6-yl)-1-(5-methyl-7H-pyrrolo[2,3-d]pyrimidin-4-yl)piperidine-4-carboxamide] as the compound, how does the pIC50 read?
Answer: > 6.30

Question: With Cc1c[nH]c2ncnc(N3CCC(CN)(C(=O)Nc4cccc(OCC(=O)N(C)C)c4)CC3)c12 [4-(aminomethyl)-N-(3-(2-(dimethylamino)-2-oxoethoxy)phenyl)-1-(5-methyl-7H-pyrrolo[2,3-d]pyrimidin-4-yl)piperidine-4-carboxamide] as the compound, how does the pIC50 read?
Answer: > 6.60
